- melting point: 201 to 202 °C
Structure (SMILES): COc1cc(Nc2ncc3c(n2)-c2ccccc2CCC3)cc(OC)c1OC [Example 6, N-(3,4,5-Trimethoxyphenyl)-6,7-dihydro-5H-benzo[6,7]cyclohepta[d]pyrimidine-2-amine]

From patent US6599908B1, “Fused polycyclic 2-aminopyrimidine derivatives” (Celltech R & D Limited, priority 1996, dated 2003)
